Experimental data from patent US20230416247A1, “DRUG-LIKE MOLECULES AND METHODS FOR THE THERAPEUTIC TARGETING OF MICRORNA-21” (University of Washington, priority 2020, published 2023).

Test system: mature miR-21 in HeLa cells
Test: qRT-PCR of mature miR-21 in HeLa cells
Type: cell-based
Procedure: FIGS. 12A and 12B compare levels of mature miR-21 in HeLa cells, as measured by standard qRT-PCR after 5 days of incubation in the presence of palbociclib and compounds −0045 (sm1), −0050 (sm3) and −0052 (sm5) (FIG. 12A); and levels of mature miR-21 in HeLa cells were measured by qRT-PCR after 4 days of incubation in the presence of palbociclib (a control) and compounds −0045 (sm1), −0050 (sm3) and −0052 (sm5) (FIG. 12B), normalized to miR-21 levels in the absence of any compound. […] The two panels represent independent duplicates of the same experiment.
HeLa cells have relatively high levels of miR-21, and this cell line was used to evaluate whether addition of the molecules would decrease levels of mature miR-21, as expected for inhibition of miR-21 processing. […] In contrast, compounds −0045, −50 and −52, induce an approximately 20% percent decline in levels of mature miR-21 (FIGS. 12A and 12B; the comparison of FIG. 12A and FIG. 12B provides an indication in the uncertainty of the data). miR-21 is very long lived, with a lifetime of approximately 5 days. […] Similar results were obtained at higher numbers of cells/plate (200 k vs at the start of the experiment), but the experiment could not be extended beyond 2 days because of the very high cell density reached. The observed trends were nonetheless in agreement with the experiments conducted at lower cell density.

SMILES | increase in levels of miR-21 (days 4 and 5 of incubation, 20 k vs 200 k cells/plate, normalized to no compound) | decline in levels of mature miR-21 (days 4 and 5 of incubation, normalized to no compound) | reduction of all newly synthesized miR-21 (worked out from the 20% decrease and miR-21 lifetime of approximately 5 days)
CC(=O)c1c(C)c2cnc(Nc3ccc(N4CCNCC4)cn3)nc2n(C2CCCC2)c1=O [Palbociclib, reference compound] | 10-20% |  | 
O=c1[nH]c(Nc2ccc(N3CCNCC3)cn2)nc2ccncc12 [−0050] |  | approximately 20% | about 60%
